Laboratory results reported in patent US4762789A, “Serodiagnostic reagent for entamoeba histolytica” (priority 1986, dated 1988).
Like-named read-outs stand apart in the source and are kept apart here. Non-standard residues stand in square brackets, D forms with d. Residues, ends and D or L forms follow the SMILES beside them. *: point of attachment. Sta = CC(C)C[C@H](N)[C@@H](O)CC(=O)O; Isovaleryl = CC(C)CC(=O)*

Key:
neutral thiol proteinase = test: Effect of DTT on enzyme activity in assays; format: biochemical, Entamoeba histolytica; conditions: 2 mM DTT
Procedure: 2 mM DTT was maintained throughout as it enhanced activity 2-4-fold in assays and prolonged stability of the enzyme during storage. Even so, as much as 25% of the activity was lost per day in storage at -20° C.
All assays were performed in 100 mM Tris/HCl, 2 mM DTT, pH 7.4 unless otherwise noted.

[1] = tested on: lysate and culture supernatant proteolytic activity; format: biochemical, Entamoeba histolytica
Procedure: (§1) "Log-phase" trophozoites (72 hours after passage) were washed to remove serum, and incubated in PBS with penicillin/streptomycin for 3 hours at 37° C. Amebae maintained greater than 90% viability as judged by Trypan blue exclusion and the absence of cytosolic alcohol dehydrogenase activity (Vallee 1955) in the PBS after incubation. Amebae were centrifuged, and the resulting supernatant passed through a 0.45 micron filter. This was designated as crude culture supernatant (CS).
For extracts, trophozoites were resuspended in PBS with penicillin/streptomycin and lysed in a nitrogen cavitation bomb (Kontes Glass Co.; Vineland, N.J.) after equilibration at 30 atm (3×10^6N/m^2) for 1 hour at 40° C. After centrifugation, the supernatant of this preparation was passed through a 0.45 micron filter and designated as soluble "lysate".
(§2) Inhibitors were preincubated with the enzyme at the indicated concentrations (See Table 1) for 20 minutes at ambient temperature; substrate was then added and proteolytic activity assayed against Z-Arg-Arg-AMC. All inhibitors were obtained from Sigma except pepstatin A (Transformation Research, Inc., Farminham, MA) and bovine serum (Biofluids). TLCK was prepared as a stock solution in dimethyl sulfoxide (DMSO). Phenlylmethylsulfonyl fluoride (PMSF), pepstatin A, and 1,10-phenanthroline stock solutions were made up in ethanol. An equal volume of DMSO or ethanol alone was tested with enzynme and inhibition was calculated relative to the appropriate solvent control.

[2] = tested on: culture supernatant proteinase activity (Entamoeba histolytica trophozoites); test: Inhibition of culture supernatant proteolytic activity, Z-Arg-Arg-AMC assay; format: biochemical
Procedure: as §1
The Z-Arg-Arg-AMC assay is based on the fluorescence of the cleaved AMC group at 460 nm when excited at 380 nm (Castillo, et al, 1979). Enzyme samples (5-25 microliters) were added to a 4 micromolar solution of Z-Arg-Arg-AMC in buffer to a total volume of 2 ml. The rate of substrate hydrolysis at room temperature was determined from the rate of increase of fluorescence, monitored on a continuously recording spectrofluorometer (Aminco SPF-500; American Instrument Co., Silver Spring, MD). The scale was calibrated with a stock solution of 1.3 micromolar AMC (Sigma).
as §2

[3] = tested on: Mono P-purified enzyme (neutral thiol proteinase); test: Inhibition of MonoP purified enzyme, Azocoll assay; format: biochemical, Entamoeba histolytica; conditions: for Activity as % of control (without inhibitor), Mono P-purified Enzyme: Azocoll assay; for Effect of inhibitor on proteolytic activity of purified enzyme: at the concentrations tested (Table I)
Procedure: Fractions of peak activity from the anion exchange column were pooled and dialyzed overnight against buffer (25 mM bis-Tris, 2 mM DTT, pH 7.1) and applied to a MonoP chromatofocusing column at a flow rate of 0.25 ml/min. Typically, about 3 ml at 0.5 mg/ml were injected. Protein was eluted at a flow rate of 0.5 ml/min over a pH gradient of 7-5 formed with 10% Polybuffer 74, pH 5. (Polybuffer 74 is the Trademark of Pharmacia Inc., 800 Centennial Avenue, Piscataway, NJ 08854 for an amphoteric chromatofocusing buffer.) The gradient was generated with the GP-250 gradient programmer and continuously monitored with a pH meter and flow cell. Fractions were collected and checked for activity as described above.
(§3) Azocollytic activity was measured by incubation of 3 mg Azocoll with 10-100 microliters of enzyme (1 ml reaction volume) for 3-16 hours at 37° C. The tubes were then vortexed, microfuged, and the amount of degradation determined from the absorbance of the supernatant at 540 nm (A540). Control tubes were incubated without enzyme; bovine trypsin (5 micrograms; Sigma) was used to determine the total available substrate.
as §2, with “All” for “Inhibitors were preincubated with the enzyme at the indicated concentrations (See Table 1) for 20 minutes at ambient temperature; substrate was then added and proteolytic activity assayed against Z-Arg-Arg-AMC. All”

[4] = tested on: culture supernatant proteinase activity (Entamoeba histolytica trophozoites); test: Inhibition of culture supernatant proteolytic activity, Azocoll assay; format: biochemical; conditions: inhibitor 2 mM
Procedure: as §1, §3
as §2, with “All” for “Inhibitors were preincubated with the enzyme at the indicated concentrations (See Table 1) for 20 minutes at ambient temperature; substrate was then added and proteolytic activity assayed against Z-Arg-Arg-AMC. All”

Plasminogen = Plasminogen activator assay (125I-fibrin plates); format: biochemical; conditions: 3 hours; 100 microliters culture supernatant or lysate; urokinase 10 ploug units; less plasminogen-free control
Procedure: Plasminogen activator activity was determined by the method of Unkeless, et al. (1973) as modified by Aggeler, et al. (1981). Briefly, 24-well plates were coated with [^125 I]-labeled fibrinogen, and incubated with calf serum for two hours at 37° C. to convert fibrinogen to fibrin. Plasminogen (280 ng; final concentration, 6 nM) was added in 50 mM Tris/HCl (pH 7.8) with 100 microliters of culture supernatant or amebic lysate or 50 microliters of MonoP-purified enzyme, to a final volume of 0.5 ml. Controls were incubated without plasminogen added. Aliquots of supernatant (50 microliters) from quadruplicate wells were counted in a gamma counter (Auto-Gamma 500; Packard Instrument Corp.; Downer's Grove, IL). Total available fibrin was determined by trypsin digest. Urokinase (10 ploug units, Calbiochem; La Jolla, CA) was assayed for comparison. Results were expressed as the percentage of total available fibrin degraded less the percentage degraded by the corresponding plasminogen-free control.

type I collagen = test: Degradation of type I collagen, SDS-PAGE; format: biochemical, bovine; conditions: 3.5 hours at 37° C.
Procedure: 40 microgram aliquots of fibronectin (Bethesda Research Laboratories (BRL); Bethesda, MD), laminin (BRL), or type 1 collagen ("Vitrogen 100"), (Vitrogen 100 is the Trademark of Collagen Corp., Palo Alto, CA for a sterile solution of purified bovine dermal type I collagen), diluted to 1 mg/ml in buffer with 150 mM NaCl, were mixed with 40 microliters of MonoP purified enzyme or 10-20 microliters of culture supernatant. Volumes were brought to 80 microliters with 100 mM Tris, pH 7.2, and DTT was added to a final concentration of 2 mM. Samples were incubated for 3.5 hours (fibronectin and collagen) or 20 hours (laminin) at 37° C. along with matched amounts of substrate or enzyme alone as controls. Collagen was also incubated with 0.5 micrograms of TPCK trypsin (trypsin with tosyl-phenylalanine-chloromethyl-ketone to inhibit any contaminating chymotrypsin, (Worthington Biochemical Corp.; Freehold, NJ) to assay for non-specific cleavage.
Reactions were terminated with 2x sample buffer, and analyzed by SDS-PAGE (laminin with 5% and 10% gels; fibronectin with 7% gels; collagen with 10% gels) for evidence of degradation; 80 microliters was loaded into each lane.

[5] = at the concentrations tested (Table I)

O[C@H](CS)[C@H](O)CS (racemic) [DTT, DL-dithiothreitol]
enhancement of enzyme activity in assays (neutral thiol proteinase): 2-4 -fold

c1cnc2c(c1)ccc1cccnc12 [1,10-phenanthroline]
Effect of inhibitor on proteolytic activity of lysate and culture supernatant [1, 5]: not affected
Activity as % of control (without inhibitor), Culture Supernatant ([2]; inhibitor 2 mM, 20 min): 100 % of control
Activity as % of control (without inhibitor), Mono P-purified Enzyme ([3]; inhibitor 2 mM): 100 % of control

CCN1C(=O)C=CC1=O [N--ethylmaleimide (NEM), N-ethylmaleimide]
Effect of inhibitor on proteolytic activity of lysate and culture supernatant [1, 5]: completely inhibited
Activity as % of control (without inhibitor), Culture Supernatant ([2]; inhibitor 5 mM, 20 min preincubation): 5 % of control
Effect of inhibitor on proteolytic activity of purified enzyme [3]: completely inhibited
Activity as % of control (without inhibitor), Mono P-purified Enzyme ([3]; inhibitor 5 mM): 0 % of control

O=C(O)CN(CCN(CC(=O)O)CC(=O)O)CC(=O)O [ethylenediaminetetracetic acid (EDTA), ethylenediaminetetracetic acid]
Effect of inhibitor on proteolytic activity of lysate and culture supernatant [1]: not affected
Activity as % of control (without inhibitor), Culture Supernatant ([2]; inhibitor 10 mM, 20 min): 100 % of control
Activity as % of control (without inhibitor), Mono P-purified Enzyme ([3]; inhibitor 10 mM): 100 % of control

O=C(O)CI [iodoacetate]
Effect of inhibitor on proteolytic activity of lysate and culture supernatant [1]: completely inhibited
Activity as % of control (without inhibitor), Culture Supernatant ([2]; inhibitor 3 mM, 20 min): 0 % of control
Effect of inhibitor on proteolytic activity of purified enzyme [3]: completely inhibited
Activity as % of control (without inhibitor), Mono P-purified Enzyme ([3]; inhibitor 3 mM): 0 % of control

CC(=O)N[C@@H](CC(C)C)C(=O)N[C@@H](CC(C)C)C(=O)N[C@H](C=O)CCCNC(=N)N [leupeptin]
Activity as % of control (without inhibitor), Culture Supernatant ([2]; inhibitor 10 microM, 20 min): 68 % of control
Effect of inhibitor on proteolytic activity of purified enzyme [3]: completely inhibited
Activity as % of control (without inhibitor), Mono P-purified Enzyme ([3]; inhibitor 10 microM): 16 % of control
Activity as % of control (without inhibitor), Mono P-purified Enzyme ([3]; inhibitor 50 microM): 0 % of control

CC(C)CC(=O)N[C@H](C(=O)N[C@H](C(=O)N[C@@H](CC(C)C)[C@@H](O)CC(=O)N[C@@H](C)C(=O)N[C@@H](CC(C)C)[C@@H](O)CC(=O)O)C(C)C)C(C)C [pepstatin A] (Isovaleryl-VV[Sta]A[Sta]-OH)
Effect of inhibitor on proteolytic activity of lysate and culture supernatant [1, 5]: not affected
Activity as % of control (without inhibitor), Culture Supernatant ([2]; inhibitor 100 microgram/ml, 20 min): 100 % of control
Activity as % of control (without inhibitor), Mono P-purified Enzyme ([3]; inhibitor 100 microgram/ml): 100 % of control

O=S(=O)(F)Cc1ccccc1 [phenylmethylsulfonyl fluoride (PMSF), phenylmethylsulfonyl fluoride]
Effect of inhibitor on proteolytic activity of lysate and culture supernatant [1, 5]: not affected
Activity as % of control (without inhibitor), Mono P-purified Enzyme ([3]; inhibitor 2 mM): 100 % of control
Activity as % of control (without inhibitor), Culture Supernatant [4]: 100 % of control

Cc1ccc(S(=O)(=O)N[C@@H](CCCCN)C(=O)CCl)cc1 [tosyl-lysyl-chloromethyl ketone (TLCK), tosyl-lysyl-chloromethyl ketone]
Effect of inhibitor on proteolytic activity of lysate and culture supernatant [1, 5]: completely inhibited
Activity as % of control (without inhibitor), Culture Supernatant ([2]; inhibitor 0.1 mM, 20 min): 0 % of control
Effect of inhibitor on proteolytic activity of purified enzyme [3]: completely inhibited
Activity as % of control (without inhibitor), Mono P-purified Enzyme ([3]; inhibitor 0.1 mM): 0 % of control

alpha1 -proteinase inhibitor: protein proteinase inhibitor obtained from Sigma
Effect of inhibitor on proteolytic activity of purified enzyme [3]: completely inhibited

urokinase
available fibrin degraded through plasminogen activation (Plasminogen): 38%

B1: trypsin: TPCK trypsin (Worthington) used to assay non-specific cleavage of collagen (protein, UniProt P00760 24-246, looked up)
Serine protease 1: IVGGYTCGANTVPYQVSLNSGYHFCGGSLINSQWVVSAAHCYKSGIQVRLGEDNINVVEGNEQFISASKSIVHPSYNSNTLNNDIMLIKLKSAASLNSRVASISLPTSCASAGTQCLISGWGNTKSSGTSYPDVLKCLKAPILSDSSCKSAYPGQITSNMFCAGYLEGGKDSCQGDSGGPVVCSGKLQGIVSWGSGCAQKNKPGVYTKVCNYVSWIKQTIASN
modifications: TPCK-treated
notes: TPCK trypsin (Worthington) used to assay non-specific cleavage of collagen
degradation of type I collagen (type I collagen): lack of non-specific proteolysis
